Laboratory results: ChEMBL document CHEMBL1201862, “PubChem BioAssay data set” (2004)
Active and inactive are the calls of the source.

Tests used:
[1] = molecular target: Prothrombin (Homo sapiens, UniProt P00734); assay: Thrombin 1536 HTS Dose Response Confirmation. [Related pubchem assays: 1046 (Thrombin 1536 HTS; hits were confirmed in this assay)]; type: functional
[2] = molecular target: T1, Aminopeptidase N (Plasmodium falciparum FcB1/Columbia, UniProt O96935); assay: P. falciparum M1AAP inhibitors, biochemical, fluorogenic H-Leu-NHMec substrate, 1536-well (AID 1445); design: species or system Plasmodium falciparum 3D7, 3D7
T1 sequence (O96935 whole entry): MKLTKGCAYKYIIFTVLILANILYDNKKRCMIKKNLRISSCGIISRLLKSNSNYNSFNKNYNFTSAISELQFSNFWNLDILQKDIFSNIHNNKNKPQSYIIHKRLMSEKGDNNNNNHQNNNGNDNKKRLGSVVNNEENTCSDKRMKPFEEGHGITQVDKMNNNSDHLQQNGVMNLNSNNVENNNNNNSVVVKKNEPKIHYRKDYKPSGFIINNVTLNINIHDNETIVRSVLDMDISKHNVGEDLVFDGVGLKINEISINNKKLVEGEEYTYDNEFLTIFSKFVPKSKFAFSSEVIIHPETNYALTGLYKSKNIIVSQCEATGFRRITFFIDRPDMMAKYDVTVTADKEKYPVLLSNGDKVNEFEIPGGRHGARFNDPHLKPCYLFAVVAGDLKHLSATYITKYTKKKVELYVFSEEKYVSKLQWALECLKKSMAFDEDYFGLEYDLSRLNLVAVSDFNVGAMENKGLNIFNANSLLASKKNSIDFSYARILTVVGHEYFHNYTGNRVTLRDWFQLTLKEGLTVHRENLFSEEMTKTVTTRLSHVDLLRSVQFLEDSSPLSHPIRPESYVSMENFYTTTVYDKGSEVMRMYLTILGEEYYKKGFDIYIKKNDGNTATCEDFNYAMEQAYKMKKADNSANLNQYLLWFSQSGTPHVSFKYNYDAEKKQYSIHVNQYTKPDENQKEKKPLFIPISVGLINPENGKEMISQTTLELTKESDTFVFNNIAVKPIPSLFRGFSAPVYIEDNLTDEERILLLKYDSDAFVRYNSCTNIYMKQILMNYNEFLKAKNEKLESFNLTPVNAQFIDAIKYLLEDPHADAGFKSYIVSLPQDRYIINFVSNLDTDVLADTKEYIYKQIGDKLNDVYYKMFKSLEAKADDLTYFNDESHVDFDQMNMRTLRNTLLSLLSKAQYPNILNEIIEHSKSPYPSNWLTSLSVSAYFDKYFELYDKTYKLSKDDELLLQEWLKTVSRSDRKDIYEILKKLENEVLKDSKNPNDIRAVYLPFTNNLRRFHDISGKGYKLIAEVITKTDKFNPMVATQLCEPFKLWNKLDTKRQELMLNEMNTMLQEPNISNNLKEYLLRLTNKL

[3] = molecular target: T2, Long-chain-fatty-acid--AMP ligase FadD28 (Mycobacterium tuberculosis, UniProt P9WQ59); assay: Fluorescence polarization aasay to screen for inhibitors that compete for the binding of FadD28 to a bisubstrate Measured in Biochemical System Using Plate Reader - 2147-01_Inhibitor_Dose_CherryPick_Activity.; type: functional, Mycobacterium tuberculosis H37Rv
T2 sequence (P9WQ59 whole entry): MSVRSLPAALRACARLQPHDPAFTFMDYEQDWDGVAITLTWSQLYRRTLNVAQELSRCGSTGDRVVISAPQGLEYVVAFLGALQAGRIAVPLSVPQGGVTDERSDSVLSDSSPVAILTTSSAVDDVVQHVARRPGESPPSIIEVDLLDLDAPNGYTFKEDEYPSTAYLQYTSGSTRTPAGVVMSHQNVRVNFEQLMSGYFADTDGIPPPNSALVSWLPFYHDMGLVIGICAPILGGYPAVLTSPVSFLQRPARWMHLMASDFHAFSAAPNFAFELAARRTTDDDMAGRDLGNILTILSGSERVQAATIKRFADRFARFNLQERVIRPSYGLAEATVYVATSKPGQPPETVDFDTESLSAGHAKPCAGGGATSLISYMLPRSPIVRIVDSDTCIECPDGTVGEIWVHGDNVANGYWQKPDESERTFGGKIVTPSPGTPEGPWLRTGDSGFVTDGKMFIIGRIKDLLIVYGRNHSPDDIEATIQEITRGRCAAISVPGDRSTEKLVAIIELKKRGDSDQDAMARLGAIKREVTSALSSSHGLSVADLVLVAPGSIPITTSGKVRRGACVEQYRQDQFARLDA

[4] = microbe, parasite or virus in culture; type: functional; settings: Mycobacterium tuberculosis
[5] = test system: INS1; assay: beta cell apoptosis inhibitors, cytokine rescue, dose response, luminescence, retest (AID 449756); type: functional, cell-based; settings: Rattus norvegicus;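 note: cell death triggered by IL-1 beta plus TNF-alpha plus IFN-gamma mixture; protective hits raise ATP signal compared with cytokine alone wells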
[6] = cytotoxicity in HEK-293T cells, dose response, cytotoxicity control for TCR NF-kB inhibitor project, luminescence, T-cell screen hits (AID 489026); type: functional, cell-based;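 note: cells exposed to compound about 14 hours before the viability readout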
[7] = molecular target: T3, RNA-binding protein pos-1 (Caenorhabditis elegans, UniProt G5EF15); assay: inhibitors of POS-1/mex-3 RNA binding, dose response, biochemical, fluorescence polarization (AID 1964);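 note: purified POS-1 fused to maltose binding protein made in E. coli; potency of compounds blocking POS-1 binding to fluorescent RNA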
T3 sequence (G5EF15 whole entry): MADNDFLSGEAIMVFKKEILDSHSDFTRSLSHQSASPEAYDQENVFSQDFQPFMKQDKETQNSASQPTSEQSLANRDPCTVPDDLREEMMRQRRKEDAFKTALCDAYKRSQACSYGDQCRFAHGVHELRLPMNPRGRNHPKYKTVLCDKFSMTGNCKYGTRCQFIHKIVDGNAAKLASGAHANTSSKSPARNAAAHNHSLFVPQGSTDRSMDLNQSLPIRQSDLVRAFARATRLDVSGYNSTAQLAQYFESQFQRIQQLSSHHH

[8] = A Cell Based Secondary Assay To Explore Cytotoxicity of Compounds that Sensitize Mycobacterium Tuberculosis to Beta-Lactam Antibiotics.; type: functional
[9] = molecular target: T4, Zinc finger protein mex-5 (Caenorhabditis elegans, UniProt Q9XUB2); assay: MEX-5/TCR-2 RNA interaction inhibitors, dose response, biochemical, C. elegans, fluorescence polarization (AID 1960)
T4 sequence (Q9XUB2 whole entry): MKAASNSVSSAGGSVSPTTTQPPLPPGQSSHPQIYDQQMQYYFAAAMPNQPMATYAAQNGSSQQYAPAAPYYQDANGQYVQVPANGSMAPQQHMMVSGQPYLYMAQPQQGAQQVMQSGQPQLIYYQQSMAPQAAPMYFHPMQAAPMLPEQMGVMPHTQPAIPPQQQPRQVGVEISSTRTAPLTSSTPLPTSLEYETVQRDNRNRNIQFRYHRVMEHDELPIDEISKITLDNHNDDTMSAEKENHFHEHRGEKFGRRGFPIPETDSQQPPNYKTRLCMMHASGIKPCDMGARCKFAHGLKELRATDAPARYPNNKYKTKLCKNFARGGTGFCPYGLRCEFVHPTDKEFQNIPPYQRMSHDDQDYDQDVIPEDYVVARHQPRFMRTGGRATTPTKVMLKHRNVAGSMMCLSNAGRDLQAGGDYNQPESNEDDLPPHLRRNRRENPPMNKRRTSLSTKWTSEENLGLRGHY

[10] = growth suppression of PTEN-null colon cells, dose response, cell-based, HCT116 PTEN knockout (AID 1047); type: functional;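 note: HCT116 colon tumor cells with PTEN knocked out; cells exposed to compound for 60 hours before readout; potency for loss of cell viability measured by luminescence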
[11] = growth suppression of beta-catenin-knockout colon cells, dose response, cell-based, HCT116, human colon tumor (AID 1045); type: functional;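 note: HCT116 colon tumor cells with beta catenin knocked out; cells exposed to compound for 60 hours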
[12] = molecular target: Paired box protein Pax-8 (Homo sapiens, UniProt Q06710); assay: inhibitors of PAX8-driven TPO luciferase reporter, dose response, RMG-I cells, cherry-pick (AID 687027); type: functional, cell-based;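 note: luciferase reporter driven by Pax8 target thyroperoxidase promoter measured by SteadyGlo luminescence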
[13] = NIH:OVCAR-3 ovarian cancer cell cytotoxicity, dose response, PAX8 inhibitor project, plate reader, dry powder samples (AID 743044); type: functional, cell-based
[14] = molecular target: T5, Calpain-2 catalytic subunit (Sus scrofa, UniProt P43367); assay: pig calpain II inhibitor potency, dose response, biochemical, fluorogenic peptide substrate (AID 1420); type: functional
T5 sequence (P43367 whole entry): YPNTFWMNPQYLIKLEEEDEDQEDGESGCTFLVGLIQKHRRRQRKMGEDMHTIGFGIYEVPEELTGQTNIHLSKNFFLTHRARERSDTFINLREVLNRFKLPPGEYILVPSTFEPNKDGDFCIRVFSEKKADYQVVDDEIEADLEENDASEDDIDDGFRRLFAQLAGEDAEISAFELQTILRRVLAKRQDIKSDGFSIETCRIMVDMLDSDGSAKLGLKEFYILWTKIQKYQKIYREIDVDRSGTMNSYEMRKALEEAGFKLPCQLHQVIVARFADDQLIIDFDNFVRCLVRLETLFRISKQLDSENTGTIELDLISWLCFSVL

[15] = Luminescence Cell-Based Dose Confirmation HTS to Identify Activators of 5'UTR Stem-Loop Driven Alpha-Synuclein mRNA Translation in H4 Neuroglioblastoma Cells. [Related pubchem assays: 1829 (Project Summary), 1814 (Primary HTS)]; type: functional
[16] = Luminescence Cell-Based Dose Response HTS to Identify Activators of Luciferase Translation or Activity in H4 […] Cells. [Related pubchem assays: 1829 (Project Summary), 1814 (Primary HTS)]; type: functional
[17] = test system: H4; assay: Luminescence Cell-Based Dose Response HTS to Identify Activators of 5'UTR Stem-Loop Driven Prion Protein mRNA Translation in H4 Neuroglioblastoma Cells. [Related pubchem assays: 1829 (Project Summary), 1814 (Primary HTS)]; type: functional; settings: Homo sapiens
[18] = molecular target: Nonstructural protein 1 (Influenza A virus, UniProt Q194T2); type: functional, Influenza A virus (A/California/07/2009(H1N1))
[19] = cells; type: functional

Chain of Paired box protein Pax-8 (Q06710 whole entry): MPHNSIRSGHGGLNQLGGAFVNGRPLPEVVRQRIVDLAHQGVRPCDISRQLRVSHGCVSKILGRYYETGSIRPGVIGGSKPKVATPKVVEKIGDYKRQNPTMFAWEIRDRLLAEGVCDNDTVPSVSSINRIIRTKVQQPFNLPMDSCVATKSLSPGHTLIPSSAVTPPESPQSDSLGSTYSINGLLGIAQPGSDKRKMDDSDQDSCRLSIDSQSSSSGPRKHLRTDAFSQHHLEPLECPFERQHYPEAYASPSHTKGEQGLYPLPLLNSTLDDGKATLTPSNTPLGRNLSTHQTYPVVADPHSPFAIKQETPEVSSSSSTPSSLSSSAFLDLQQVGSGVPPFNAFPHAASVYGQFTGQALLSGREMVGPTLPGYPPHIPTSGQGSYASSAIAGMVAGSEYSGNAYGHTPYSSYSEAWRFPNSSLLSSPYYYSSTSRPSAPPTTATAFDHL
Chain of Nonstructural protein 1 (Q194T2 whole entry): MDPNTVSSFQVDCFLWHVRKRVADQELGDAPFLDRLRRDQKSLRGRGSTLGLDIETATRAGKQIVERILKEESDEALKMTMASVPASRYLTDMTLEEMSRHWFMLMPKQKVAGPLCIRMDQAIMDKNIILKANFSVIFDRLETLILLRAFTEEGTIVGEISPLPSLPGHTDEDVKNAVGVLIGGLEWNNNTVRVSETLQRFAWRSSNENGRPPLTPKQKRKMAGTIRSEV

Structure (SMILES): O=C(c1cccnc1)n1nc(-c2ccco2)nc1NCc1cccs1
- IC50 [1]: 0.001 µM (active)

Structure (SMILES): COC(=O)Cc1ccc(NC(=S)N2CCN(c3ccc(F)cc3)CC2)cc1
- IC50 [1]: > 50 µM (not active)

Structure (SMILES): CCCC(C)C1(CC)C(=O)N=C(Nc2ccccc2OC)NC1=O (stereo unspecified)
- IC50 [2]: 52.1 µM (active)

Structure (SMILES): COc1cc(/C=N/NC(=O)C(Cc2c[nH]c3ccccc23)NC(=O)OCC(C)C)cc([N+](=O)[O-])c1O (stereo unspecified)
- IC50 [2]: 16.7 µM (active)
- AC50 [3]: 65.6 µM (active)

Structure (SMILES): COc1ccc(/C=C2\SC(=S)N(C(C(=O)O)c3ccccc3)C2=O)c(OC)c1 (stereo unspecified)
- IC50 [2]: 21.9 µM (active)

Structure (SMILES): CCN(CC)CCNC(=O)c1ccc(NC(=O)c2cn(-c3ccccc3)nc2-c2cccs2)cc1
- CC50 [4]: 7.35 µM (active)
- AC50 [5]: 6.79 µM (active)

Structure (SMILES): COc1cc(-c2noc(C)c2-c2ccc3[nH]ccc3c2)cc(OC)c1OC
- IC50 [6]: 32.5 µM (inactive)

Structure (SMILES): CN(C)CCCN(C(=O)/C=C/c1cccs1)c1nc2ccc(F)cc2s1
- EC50 [7]: > 300 µM (not active)
- CC50 [8]: 12.4 µM (active)
- EC50 [9]: > 300 µM (not active)

Structure (SMILES): COc1cccc(NS(=O)(=O)c2ccc3ncc(C(=O)NCCC(C)C)c(O)c3c2)c1
- CC50 [8]: > 40 µM (active)

Structure (SMILES): O=C(Nc1ccc2oc(-c3ccc(Cl)c(Cl)c3)nc2c1)c1nc[nH]n1
- CC50 [8]: 16.4 µM (active)
- EC50 [10]: 3.34 µM (active)
- EC50 [11]: 4.31 µM (active)

Structure (SMILES): COc1ccc(-c2cc(-c3ccc(OC)cc3)nc(-c3ccc4c(c3)NC(=O)CO4)c2)cc1
- CC50 [8]: 38.7 µM (active)

Structure (SMILES): CC(C)NC(=O)N(C)C[C@H]1OCCCC[C@H](C)Oc2ccc(NC(=O)Nc3ccc(C(F)(F)F)cc3)cc2C(=O)N([C@H](C)CO)C[C@@H]1C
- AC50 [12]: 12.5 µM (active)
- AC50 [13]: 53.3 µM (active)

Structure (SMILES): CCCCCCCNC1=CC(=O)CC(c2ccccc2)C1 (stereo unspecified)
- CC50 [4]: 38 µM (active)
- IC50 [14]: 9.58 µM (not active)
- AC50 [5]: 6.36 µM (active)

Structure (SMILES): CCCN1C(=O)/C(=C2\SC(N3CCCCC3)=NC2=O)c2ccccc21
- EC50 [15]: 15.2 µM (active)
- EC50 [16]: 64.2 µM (active)
- EC50 [17]: > 120 µM (not active)
- IC50 [18]: 28.5 µM (active)

Structure (SMILES): CC(C)Nc1nc(C#N)nc(NC(C)C)n1
- IC50 [1]: 23 µM (active)

Structure (SMILES): O=C(Nc1nc2ccccc2n1CCN1CCCC1)C1CCCCC1
- CC50 [8]: > 40 µM (active)
- IC50 [19]: 46.9 µM (active)

Structure (SMILES): Cc1ccc(OCc2nnc(S)n2N)cc1C
- IC50 [1]: > 50 µM (not active)

Structure (SMILES): Nc1nc(-c2cccnc2)nn1C(=O)c1ccc(Cl)cc1
- IC50 [1]: 0.781 µM (active)
